According to paper PMC8699473, “An Easily Expandable Multi-Drug LC-MS Assay for the Simultaneous Quantification of 57 Oral Antitumor Drugs in Human Plasma” (Cancers, 2021):
Read-outs that look alike come from different tables or passages of the source.

Experiment: Autosampler stability of ready for injection samples
Assay type: physicochemical, human

| SMILES | Autosampler (24h, 4°C) Accuracy [%] (validation standard 2xLLOV) | Autosampler (72h, 4°C) Accuracy [%] (validation standard 2xLLOV) | Autosampler (24h, 4°C) Accuracy [%] (validation standard LLOV) | Autosampler (72h, 4°C) Accuracy [%] (validation standard LLOV) | Autosampler (24h, 4°C) Accuracy [%] (validation standard MOV) | Autosampler (72h, 4°C) Accuracy [%] (validation standard MOV) | Autosampler (24h, 4°C) Accuracy [%] (validation standard ULOV) | Autosampler (72h, 4°C) Accuracy [%] (validation standard ULOV) | Autosampler (24h, 4°C) Accuracy [%] | Autosampler (72h, 4°C) Accuracy [%] |
| --- | --- | --- | --- | --- | --- | --- | --- | --- | --- | --- |
| Nc1cccc2c1C(=O)N(C1CCC(=O)NC1=O)C2=O (centres unmarked) [Pomalidomide] | 104.1 | 103.5 | 104.9 | 96.5 | 104.5 | 97.7 | 100.5 | 97.9 | – | – |
| Cc1ccc(C(=O)Nc2ccc(CN3CCN(C)CC3)c(C(F)(F)F)c2)cc1C#Cc1cnc2cccnn12 [Ponatinib] | 106.1 | 106.1 | – | – | 106.1 | 102.3 | 101.9 | 102.0 | 104.7 | 104.7 |
| CN(C)C(=O)c1cc2cnc(Nc3ccc(N4CCNCC4)cn3)nc2n1C1CCCC1 [Ribociclib] | 103.0 | – | 84.0 | – | 104.1 | – | 89.8 | – | – | – |
| CNCc1ccc(-c2[nH]c3cc(F)cc4c3c2CCNC4=O)cc1 [Rucaparib] | 98.1 | 96.4 | 104.5 | 104.1 | 104.6 | 103.8 | 100.1 | 102.4 | – | – |
| N#CC[C@H](C1CCCC1)n1cc(-c2ncnc3[nH]ccc23)cn1 [Ruxolitinib] | 100.5 | 97.7 | 93.9 | 94.4 | 102.4 | 99.7 | 100.1 | 99.7 | – | – |
| Cc1c(C(=O)Nc2ccc(N3C[C@@H](C)O[C@@H](C)C3)nc2)cccc1-c1ccc(OC(F)(F)F)cc1 [Sonidegib] | 101.5 | 101.9 | 109.3 | 100.0 | 99.4 | 101.1 | 101.3 | 98.1 | – | – |
| CNC(=O)c1cc(Oc2ccc(NC(=O)Nc3ccc(Cl)c(C(F)(F)F)c3)cc2)ccn1 [Sorafenib] | 103.1 | 104.1 | 112.0 | 104.9 | 101.0 | 103.5 | 101.7 | 98.3 | – | – |
| CCN(CC)CCNC(=O)c1c(C)[nH]c(/C=C2\C(=O)Nc3ccc(F)cc32)c1C [Sunitinib] | 113.8 | 111.0 | 113.8 | 119.4 | 111.8 | 114.3 | 113.4 | 119.5 | – | – |
| O=C1CCC(N2C(=O)c3ccccc3C2=O)C(=O)N1 (centres unmarked) [Thalidomide] | 102.3 | 101.6 | 98.2 | 98.0 | 105.2 | 96.2 | 96.9 | 97.8 | – | – |
